Here are results for 18 compounds from PubChem BioAssay AID330 (DTP/NCI, 2004).

The test deals with P388 leukemia ip, CD2F1 mice, survival T/C. Briefly: NCI In Vivo Anticancer Drug Screen. Data for tumor model P388 Leukemia (intraperitoneal) in CD2F1 (CDF1) mice. The following applies: endpoint: median survival time, higher = longer survival. The procedure:
The antitumor activity of compounds was measured in mice bearing transplantable tumors. Survival or tumor size were measured and the results are expressed as the measurement made in the treated group (T) divided by the measurement made in the vehicle treated control group (C). The tumor model used in this assay is P388 Leukemia (intraperitoneal) in CD2F1 (CDF1) mice

Where [1] appears, read: dose: 50.0 mg/kg/injection, schedule: Q01DX005 (ip), vehicle: Klucel (hydroxypropylcellulose) (HPC).
[2] abbreviates: dose: 100.0 mg/kg/injection, schedule: Q01DX005 (ip), vehicle: Klucel (hydroxypropylcellulose) (HPC).
Where [3] appears, read: dose: 200.0 mg/kg/injection, schedule: Q01DX005 (ip), vehicle: Klucel (hydroxypropylcellulose) (HPC).
Setting [4] is: dose: 50.0 mg/kg/injection, schedule: Q01DX005 (ip), vehicle: saline.
The mark [5] stands for this setting: dose: 100.0 mg/kg/injection, schedule: Q01DX005 (ip), vehicle: saline.
The mark [6] stands for this setting: dose: 50.0 mg/kg/injection, schedule: Q01DX009 (ip), vehicle: Klucel (hydroxypropylcellulose) (HPC).
[7] abbreviates: dose: 50.0 mg/kg/injection, schedule: Q01DX005 (ip), vehicle: saline with Tween-80.
[8] abbreviates: dose: 100.0 mg/kg/injection, schedule: Q01DX005 (ip), vehicle: saline with Tween-80.
[9] abbreviates: dose: 200.0 mg/kg/injection, schedule: Q01DX005 (ip), vehicle: saline with Tween-80.
Where [10] appears, read: dose: 60.0 mg/kg/injection, schedule: Q01DX005 (ip), vehicle: Klucel (hydroxypropylcellulose) (HPC).
Setting [11] is: dose: 120.0 mg/kg/injection, schedule: Q01DX005 (ip), vehicle: Klucel (hydroxypropylcellulose) (HPC).
[12] abbreviates: dose: 240.0 mg/kg/injection, schedule: Q01DX005 (ip), vehicle: Klucel (hydroxypropylcellulose) (HPC).

Values joined by “and” are separate entries in the source; they are usually repeats but may differ in a detail not shown here. Identical values can stand only once. Inconclusive results and toxic doses are left out. Square brackets hold non-standard residues; d marks the D form. Peptide text beside a SMILES is read from it. Sar = CNCC(=O)O

Turning to `O=c1c2cccnc2oc2c(Cl)cc(-c3nn[nH]n3)cc12`, the T/C reads like this: under setting [1], 97 % of control; under setting [2], 111 % of control; under setting [3], 97 % of control.
`CC(C)Oc1nc(N2CCNCC2)nc2c1CCC2`: the T/C is, setting by setting: (dose: 15.0 mg/kg/injection, schedule: Q01DX005 (ip), vehicle: saline) 101 % of control; (dose: 30.0 mg/kg/injection, schedule: Q01DX005 (ip), vehicle: saline) 94 % of control; (dose: 60.0 mg/kg/injection, schedule: Q01DX005 (ip), vehicle: saline) 101 % of control.
On to `CC1C(=O)OC23CC(C)(C)C4OC42C(C)CCC13O` (stereo unspecified), for which the T/C is 93 % of control (dose: 0.37 mg/kg/injection, schedule: Q01DX009 (ip), vehicle: saline); 99 % of control (dose: 0.75 mg/kg/injection, schedule: Q01DX009 (ip), vehicle: saline); 97 % of control (dose: 1.5 mg/kg/injection, schedule: Q01DX009 (ip), vehicle: saline); 99 % of control (dose: 3.0 mg/kg/injection, schedule: Q01DX009 (ip), vehicle: saline).
In the case of `CCC(=O)N(C)C(C)C(=O)OC1CC(=O)N(C)c2cc(cc(OC)c2Cl)CC(C)CCCC(OC)C2(O)CC(OC(=O)N2)C(C)C2OC12C` (stereo unspecified), the T/C reads like this: (dose: 1.56 micrograms/kg/injection, schedule: Q01DX009 (ip), vehicle: saline + alcohol) 106 % of control; (dose: 3.12 micrograms/kg/injection, schedule: Q01DX009 (ip), vehicle: saline + alcohol) 105 % of control; (dose: 6.25 micrograms/kg/injection, schedule: Q01DX009 (ip), vehicle: saline + alcohol) 110 % of control; (dose: 12.5 micrograms/kg/injection, schedule: Q01DX009 (ip), vehicle: saline + alcohol) 108 % of control; (dose: 50.0 micrograms/kg/injection, schedule: Q01DX009 (ip), vehicle: saline + alcohol) 105 % of control; (dose: 100.0 micrograms/kg/injection, schedule: Q01DX009 (ip), vehicle: saline + alcohol) 109 % of control. Further, the T/C is 102 % of control (dose: 200.0 micrograms/kg/injection, schedule: Q01DX009 (ip), vehicle: saline + alcohol) and 114 % of control (dose: 400.0 micrograms/kg/injection, schedule: Q01DX009 (ip), vehicle: saline + alcohol).
For the compound `CC(=NCCCCN=C(C)c1cc(C)cc(Br)c1O)c1cc(C)cc(Br)c1O.[Co]`, the T/C reads like this: (dose: 6.25 mg/kg/injection, schedule: Q01DX005 (ip), vehicle: Klucel (hydroxypropylcellulose) (HPC)) 99 % of control and 104 % of control; (dose: 12.5 mg/kg/injection, schedule: Q01DX005 (ip), vehicle: Klucel (hydroxypropylcellulose) (HPC)) 100 % of control and 106 % of control; (dose: 25.0 mg/kg/injection, schedule: Q01DX005 (ip), vehicle: Klucel (hydroxypropylcellulose) (HPC)) 101 % of control and 109 % of control and 283 % of control; under setting [1], 98 % of control and 109 % of control and 283 % of control; under setting [2], 106 % of control and 97 % of control; under setting [3], 97 % of control.
Turning to `CC1=CC23C(=O)[C@@H](C=C(COC(=O)c4ccccc4)[C@@H](O)[C@]2(O)[C@H]1OC(=O)c1ccccc1)[C@H]1[C@@H](C[C@H]3C)C1(C)C`, the T/C reads like this: (dose: 12.5 micrograms/kg/injection, schedule: Q01DX009 (ip), vehicle: saline with Tween-80) 113 % of control; (dose: 25.0 micrograms/kg/injection, schedule: Q01DX009 (ip), vehicle: saline with Tween-80) 102 % of control; (dose: 50.0 micrograms/kg/injection, schedule: Q01DX009 (ip), vehicle: saline with Tween-80) 106 % of control; (dose: 100.0 micrograms/kg/injection, schedule: Q01DX009 (ip), vehicle: saline with Tween-80) 119 % of control; (dose: 200.0 micrograms/kg/injection, schedule: Q01DX009 (ip), vehicle: saline with Tween-80) 113 % of control; (dose: 281.0 micrograms/kg/injection, schedule: Q01DX009 (ip), vehicle: saline + alcohol) 108 % of control. In addition, the T/C was 89 % of control (dose: 468.0 micrograms/kg/injection, schedule: Q01DX009 (ip), vehicle: saline + alcohol) and 89 % of control (dose: 780.0 micrograms/kg/injection, schedule: Q01DX009 (ip), vehicle: saline + alcohol).
For the compound `CN(CC(=O)O)C(=O)CNC(=O)CN` (H-Gly-Gly-[Sar]-OH), the T/C is 91 % of control under setting [4]; 92 % of control under setting [5]; 91 % of control (dose: 200.0 mg/kg/injection, schedule: Q01DX005 (ip), vehicle: saline).
As to `COC(=O)C1C[S][Sn]2([NH]1)[NH]C(C(=O)OC)C[S]2` (stereo unspecified), the T/C is 108 % of control under setting [1], 106 % of control under setting [2] and 101 % of control under setting [3].
Regarding `C=CCSc1ccc(Cl)cc1[N+](=O)[O-]`, the T/C under setting [6] is 101 % of control; the T/C (dose: 100.0 mg/kg/injection, schedule: Q01DX009 (ip), vehicle: Klucel (hydroxypropylcellulose) (HPC)) was 100 % of control; the T/C (dose: 200.0 mg/kg/injection, schedule: Q01DX009 (ip), vehicle: Klucel (hydroxypropylcellulose) (HPC)) is 100 % of control.
As for `Cc1ccc(S(=O)(=O)N/N=C/c2cc(I)cc(I)c2O)cc1`, the T/C is, setting by setting: under setting [7], 98 % of control; under setting [8], 100 % of control; under setting [9], 100 % of control.
Consider `O=c1c2cc(Cl)ccc2on1CN1CCOCC1`, for which the T/C reads like this: under setting [7], 111 % of control; under setting [8], 118 % of control; under setting [9], 111 % of control.
Regarding `Cc1cc(=O)n2c(nc3ccccc32)o1`, the T/C is, setting by setting: under setting [10], 104 % of control; under setting [11], 104 % of control; under setting [12], 99 % of control.
With `COc1cccc(C2c3cc4c(cc3OC(O)C2C)OCO4)c1O` (stereo unspecified), the T/C reads like this: under setting [10], 99 % of control; under setting [11], 99 % of control; under setting [12], 100 % of control.
As for `CC(=NCc1ccccc1)NO`, the T/C under setting [4] was 97 % of control and the T/C under setting [5] is 96 % of control.
With `CN(C)C(=O)n1cnc([N+](=O)[O-])c1`, the T/C (dose: 100.0 mg/kg/injection, schedule: Q01DX001 (ip), vehicle: saline with Tween-80) was 97 % of control and the T/C (dose: 200.0 mg/kg/injection, schedule: Q01DX001 (ip), vehicle: saline with Tween-80) is 112 % of control.
Consider `CN(C)N=Nc1cccc(Cl)c1`, for which the T/C (dose: 6.25 mg/kg/injection, schedule: Q01DX009 (ip), vehicle: Klucel (hydroxypropylcellulose) (HPC)) was 95 % of control; the T/C (dose: 12.5 mg/kg/injection, schedule: Q01DX009 (ip), vehicle: Klucel (hydroxypropylcellulose) (HPC)) is 105 % of control; the T/C (dose: 12.5 mg/kg/injection, schedule: Q01DX009 (ip), vehicle: saline with Tween-80) was 100 % of control; the T/C (dose: 25.0 mg/kg/injection, schedule: Q01DX009 (ip), vehicle: Klucel (hydroxypropylcellulose) (HPC)) is 98 % of control; the T/C (dose: 25.0 mg/kg/injection, schedule: Q01DX009 (ip), vehicle: saline + alcohol) was 107 % of control; the T/C (dose: 25.0 mg/kg/injection, schedule: Q01DX009 (ip), vehicle: saline with Tween-80) is 98 % of control. Besides, the T/C runs as follows: (dose: 25.0 mg/kg/injection, schedule: Q01DX009 (ip), vehicle: saline) 91 % of control; under setting [6], 100 % of control; (dose: 50.0 mg/kg/injection, schedule: Q01DX009 (ip), vehicle: saline + alcohol) 120 % of control; (dose: 50.0 mg/kg/injection, schedule: Q01DX009 (ip), vehicle: saline with Tween-80) 107 % of control; (dose: 50.0 mg/kg/injection, schedule: Q01DX009 (ip), vehicle: saline) 99 % of control; (dose: 100.0 mg/kg/injection, schedule: Q01DX009 (ip), vehicle: saline with Tween-80) 105 % of control. Further, the T/C was 97 % of control (dose: 100.0 mg/kg/injection, schedule: Q01DX009 (ip), vehicle: saline) and 100 % of control (dose: 200.0 mg/kg/injection, schedule: Q01DX009 (ip), vehicle: saline).
`Nc1nc2c(c(-c3nc(N)nc4c3Cc3ccccc3-4)n1)Cc1ccccc1-2`: the T/C is 98 % of control (dose: 60.0 mg/kg/injection, schedule: Q01DX005 (ip), vehicle: saline with Tween-80) and 100 % of control (dose: 120.0 mg/kg/injection, schedule: Q01DX005 (ip), vehicle: saline with Tween-80).
Consider `CCOC(=O)COC(=O)C1C(C(N)=O)N(CC(=O)OCC)CCN1CC(=O)OCC` (stereo unspecified), for which the T/C was 101 % of control under setting [7], 99 % of control under setting [8] and 103 % of control under setting [9].
